Data on 58 compounds can be found in patent US20130079394A1, “Indirect modeling of new repellent molecules active against insects, acarids, and other arthropods” (CNRS (CENTRE NATIONAL RECHERCHE SCIENTIFIQUE), priority 2011, published 2013).

The subject of one data set is flies. Briefly: Repellency index of coumarin derivatives evaluated in vivo (index from −1 to 1, function of a number of flies). On the set-up: key to Repellency Index: index from −1 to 1, 1 = highly repellent. As to conditions: for Repellency Index: experimental index ranging from −1 to 1 (1 = highly repellent), measurement error about ±0.1, data set of USSN 61,501,485; for repellency index (RI) of reference repellents: values used as class thresholds. The protocol:
Up until now, all existing models for repellency have been based on protection time value, which is different for each. Moreover, the environmental parameters in which the animals are studied are frequently different. As a consequence, data produced using different models cannot be combined/compared. […] The numerical value obtained was not a protection time but rather an index ranging from −1 to 1 (with 1 being highly repellent). This number was calculated for each experiment and is function of a number of flies.
To minimize the deleterious effects of these potentially confounding factors, “repellency classes” were established. Based on the repellency index values, the dataset was divided into 2, 3, 4 or 5 repellency class subsets, in order to reduce the difficulty of modeling the property of slightly repellent molecules. For example, in the four classes' models, the thresholds between the classes are defined as follow: […]

A further data set deals with mosquitoes. Conditions: absence of body odor attractants such as 1-octen-3-ol, lactic acid, or carbon dioxide; cited from earlier work.
For data set [1] the following is noted: reported by US EPA (RED); cited from earlier work.

Consider `CC(C)COC1CCC2CCC(=O)OC2C1` (stereo not drawn) [EV 04188], for which the “Repellency Index” value with flies worked out at 0.65.
Same read-out and setting: next, `CCCCCCCCN(CCCCCCCC)C(=O)COc1cc(=O)oc2ccccc12` [EV 07068]: 0.98; `CC(=O)OC(C)C(=O)Oc1ccc2ccc(=O)oc2c1` (stereo not drawn) [EV 04122]: −0.36.
On the same count and under the same terms, next, `CCCCCCCCN(CCCCCCCC)C(=O)c1ccc2ccc(=O)oc2c1` [EV 06096]: 0.91; `COC(=O)/C=C/c1ccccc1O` [EV 05056]: 0.40.
On to `CC1CCCCN1C(=O)COc1ccc2ccc(=O)oc2c1` (stereo not drawn) [EV 05134], for which the “Repellency Index” value with flies is reported as 0.78.
Still for that read-out and setting: for `CCC(C)OC(=O)COc1ccc2ccc(=O)oc2c1` (stereo not drawn) [EV 06178] the value was 0.25.
On the same count and under the same terms, for `CC1CCCCC1Oc1ccc2ccc(=O)oc2c1` (stereo not drawn) [EV 04084] the value was −0.01; for `C=CCOc1ccc2ccc(=O)oc2c1` [EV 04032], 0.19; for `CC(C)Oc1ccc2ccc(=O)oc2c1` [EV 04054], 0.66.
Turning to `CCN(CC)C(=O)c1ccc2ccc(=O)oc2c1` [EV 05084], the “Repellency Index” value in the data set with flies is on record as 0.30.
The same measure, in the same setting: for `CCC(C)OC(=O)c1ccc2ccc(=O)oc2c1` (stereo not drawn) [EV 05178] the value was 0.71.
`CCC(C)OC(=O)N1CCCCC1CCO` (stereo not drawn) [Picaridine, reference compound]: the “repellency index (RI) of reference repellents” value in the data set with flies was found to be 0.70.
On to `CCC(CC)Oc1ccc2oc(=O)ccc2c1` [EV 06018], for which, in the data set on flies, the “Repellency Index” value was 0.43.
Take `O=C(COc1ccc2ccc(=O)oc2c1)N1CCCCC1` [EV 05088]: the “Repellency Index” value in the data set with flies is given as 0.07.
Same read-out and setting: next, `CCC(C)COc1ccc2ccc(=O)oc2c1` (stereo not drawn) [EV 04094]: 0.73.
On the same count and under the same terms, for `CC(C)C(C)Oc1ccc2ccc(=O)oc2c1` (stereo not drawn) [EV 06028] the value was 0.88.
Still for that read-out and setting: for `CCC(C)CC(=O)Oc1ccc2ccc(=O)oc2c1` (stereo not drawn) [EV 04062] the value was 0.04; for `CCCC(C)Oc1cc(=O)oc2ccccc12` (stereo not drawn) [EV 06098], 0.95; for `CCCC(C)Oc1ccc2oc(=O)ccc2c1` (stereo not drawn) [EV 06154], 0.93.
For the compound `CC(C)COc1cc(=O)oc2ccccc12` [EV07070], in the data set with flies, the “Repellency Index” value was 0.94.
The same measure, in the same setting: next, `CCCCCOc1ccc2ccc(=O)oc2c1` [EV 06026]: 0.88; `CCC(C)Oc1ccc2ccc(=O)oc2c1` (stereo not drawn) [EV 04058]: 0.76.
Consider `CCC(C)Oc1ccc2oc(=O)ccc2c1` (stereo not drawn) [EV 06068], for which the “Repellency Index” value with flies is recorded as 0.88.
Same read-out and setting: next, `CC(C)COc1ccc2oc(=O)ccc2c1` [EV07072]: 0.98.
The same measure, in the same setting: for `CCCCCOc1cc(=O)oc2ccccc12` [EV 06136] the value was 0.77; for `CC(C)(C)COc1ccc2ccc(=O)oc2c1` [EV 06162], −0.55.
Take `CCCCCCC(C)Oc1cc(=O)oc2ccccc12` (stereo not drawn) [EV07078]: the “Repellency Index” value with flies stood at 0.91.
On the same count and under the same terms, for `O=C(c1ccc2ccc(=O)oc2c1)N1CCCCC1` [EV 05118] the value was −0.10; for `CCCCCCCCN(CCCCCCCC)C(=O)COc1ccc2ccc(=O)oc2c1` [EV 06092], 0.35.
The same measure, in the same setting: for `CCC(C)COC(=O)COc1ccc2ccc(=O)oc2c1` (stereo not drawn) [EV 06058] the value was 0.52.
On to `CCCCCCOc1ccc2ccc(=O)oc2c1` [EV 06110], for which, in the data set with flies, the “Repellency Index” value is recorded as 0.78.
The same measure, in the same setting: for `CCCC(C)Oc1ccc2ccc(=O)oc2c1` (stereo not drawn) [EV 06044] the value was 0.92.
On the same count and under the same terms, next, `CCN(CC)C(=O)COc1ccc2ccc(=O)oc2c1` [EV 05096]: 0.80; `CCC(C)OC(=O)COc1ccc2ccc(=O)oc2c1` (stereo not drawn) [EV 06046]: 0.08; `CC(C)CCOc1cc(=O)oc2ccccc12` [EV 06140]: 0.84.
For the compound `CCC(CC)OC(=O)COc1ccc2ccc(=O)oc2c1` [EV 05174], the “Repellency Index” value in the data set on flies is reported as 0.69.
Still for that read-out and setting: for `CCCCOc1ccc2ccc(=O)oc2c1` [EV 04036] the value was −0.06; for `CCCCC(CC)C(=O)Oc1ccc2ccc(=O)oc2c1` (stereo not drawn) [EV 04016], 0.11.
On the same count and under the same terms, for `CC(C)CCOc1ccc2ccc(=O)oc2c1` [EV 06036] the value was 0.73.
In the case of `CCC(C)NC(=O)c1ccc2ccc(=O)oc2c1` (stereo not drawn) [EV 06166], the “Repellency Index” value with flies is on record as 0.25.
Take `CCC(C)OC(=O)N1CCCCC1CCOc1ccc2ccc(=O)oc2c1` (stereo not drawn) [EV 04042]: in the data set with flies, the “Repellency Index” value is recorded as 0.43.
With `CCN(CC)C(=O)c1cccc(C)c1` [DEET, N,N-Diethyl-meta-toluamide], the “repellency index (RI) of reference repellents” value in the data set on flies amounted to 0.83. For the same compound, the “repellent activity in a behavioral test” value with mosquitoes was “strong repellent activity”. Moreover, the “deaths among DEET-associated seizure cases” value in data set [1] is listed as 4 deaths.
Consider `CC(C)C(C)Oc1cc(=O)oc2ccccc12` (stereo not drawn) [EV 06128], for which the “Repellency Index” value in the data set with flies is listed as 0.34.
The same measure, in the same setting: for `CCC(C)Oc1ccc2ccc(=O)oc2c1` (stereo not drawn) [EV 06188] the value was 0.87.
Still for that read-out and setting: for `CCC(CC)OC(=O)c1ccc2ccc(=O)oc2c1` [EV 05162] the value was 0.62; for `C=C(C)C1CC=C(COc2ccc3ccc(=O)oc3c2)CC1` (stereo not drawn) [EV 04090], 0.40.
Same read-out and setting: next, `CC1CCCCN1C(=O)c1ccc2ccc(=O)oc2c1` (stereo not drawn) [EV 05144]: 0.60.
`CCC(C)Oc1ccc2ccc(=O)oc2c1` (stereo not drawn) [EV 04070]: the “Repellency Index” value with flies came to 0.83.
Still for that read-out and setting: next, `CCCCCCC(C)Oc1ccc2ccc(=O)oc2c1` (stereo not drawn) [EV 06148]: 0.92.
On the same count and under the same terms, next, `CCC(C)Oc1cc(=O)oc2ccccc12` (stereo not drawn) [EV 06088]: 0.82; `C/C=C(\C)C(=O)Oc1ccc2ccc(=O)oc2c1` [EV 04024]: 0.26; `CCC(C)C(=O)Oc1ccc2ccc(=O)oc2c1` (stereo not drawn) [EV 04030]: −0.10.
Still for that read-out and setting: next, `CCCCCCCCOc1ccc2ccc(=O)oc2c1` [EV 06144]: 0.83; `CCCCN(CCCC)C(=O)c1ccc2ccc(=O)oc2c1` [EV 05138]: 0.72; `CCC(CC)Oc1ccc2ccc(=O)oc2c1` [EV 04114]: 0.86.
Consider `CCCCN(CCCC)C(=O)COc1ccc2ccc(=O)oc2c1` [EV 05120], for which, in the data set with flies, the “Repellency Index” value was 0.71.
Still for that read-out and setting: for `CCC(CC)Cc1cc(=O)oc2ccccc12` [EV 06062] the value was 0.97.
